From ChEMBL document CHEMBL3885861, “Open TG-GATES”

Organism: Rattus norvegicus
Test: Open TG-GATES - Regimen: Single
Type: toxicity, organism-based, Sprague-Dawley
Parameters: regimen Single, gender Male, age 6 weeks
Settings: in vivo, po, route gavage; for APTT / Bas / Eos / Fbg / Hb / Ht / Lym / MCH / MCHC / MCV / Mono / Neu / PT / Plat / RBC / Ret / WBC: tissue Blood; for KIDNEY_L / KIDNEY_R / KIDNEY_TOTAL: tissue Kidney; for LIVER: tissue Liver; for A/G / ALP / ALT / AST / BUN / CRE / Ca / Cl / DBIL / GLC / IP / K / LDH / Na / PL / RALB / TBIL / TC / TG / TP / gamma-GTP: tissue Plasma
[1] = 300 mg/kg, 3 h, dose level Middle
[2] = 300 mg/kg, 6 h, dose level Middle
[3] = 300 mg/kg, 9 h, dose level Middle
[4] = 300 mg/kg, 24 h, dose level Middle
[5] = 1000 mg/kg, 3 h, dose level High
[6] = 1000 mg/kg, 6 h, dose level High
[7] = 1000 mg/kg, 9 h, dose level High
[8] = 1000 mg/kg, 24 h, dose level High

O=C(O)c1cc(/N=N/c2ccc(S(=O)(=O)Nc3ccccn3)cc2)ccc1O [SULFASALAZINE]
TERMINAL_BW [1]: 212.5 g
APTT [1]: 18.5 s
Bas [1]: 0%
Eos [1]: 1%
Fbg [1]: 215.2 mg/dL
Hb [1]: 13.1 g/dL
Ht [1]: 38.5%
Lym [1]: 79%
MCH [1]: 21.3 pg
MCHC [1]: 34%
MCV [1]: 62.6 fL
Mono [1]: 2.6%
Neu [1]: 16.2%
PT [1]: 12.9 s
Plat [1]: 115.5 x10_4/uL
RBC [1]: 615.6 x10_4/ul
Ret [1]: 6.7%
WBC [1]: 93.5 x10_2/uL
KIDNEY_L [1]: 1 g
KIDNEY_R [1]: 0.9 g
KIDNEY_TOTAL [1]: 1.9 g
LIVER [1]: 9.7 g
A/G [1]: 1.6
ALP [1]: 897.6 IU/L
ALT [1]: 36.6 IU/L
AST [1]: 61.4 IU/L
BUN [1]: 10.8 mg/dL
CRE [1]: 0.4 mg/dL
Ca [1]: 10.4 mg/dL
Cl [1]: 102.2 meq/L
DBIL [1]: 0.064 mg/dL
GLC [1]: 198.2 mg/dL
IP [1]: 9.6 mg/dL
K [1]: 3.7 meq/L
LDH [1]: 147.2 IU/L
Na [1]: 140.6 meq/L
PL [1]: 140 mg/dL
RALB [1]: 3.3 g/dL
TBIL [1]: 0.1 mg/dL
TC [1]: 71.2 mg/dL
TG [1]: 59.6 mg/dL
TP [1]: 5.4 g/dL
gamma-GTP [1]: 1 IU/L
TERMINAL_BW [2]: 209.1 g
APTT [2]: 18.9 s
Bas [2]: 0%
Eos [2]: 1%
Fbg [2]: 230.2 mg/dL
Hb [2]: 13.2 g/dL
Ht [2]: 39%
Lym [2]: 76.2%
MCH [2]: 21.4 pg
MCHC [2]: 34%
MCV [2]: 63.1 fL
Mono [2]: 3%
Neu [2]: 19%
PT [2]: 12.6 s
Plat [2]: 115.4 x10_4/uL
RBC [2]: 618.8 x10_4/ul
Ret [2]: 7.4%
WBC [2]: 81.1 x10_2/uL
KIDNEY_L [2]: 1 g
KIDNEY_R [2]: 0.9 g
KIDNEY_TOTAL [2]: 1.9 g
LIVER [2]: 9.8 g
A/G [2]: 1.5
ALP [2]: 961.6 IU/L
ALT [2]: 33.8 IU/L
AST [2]: 68.8 IU/L
BUN [2]: 11.4 mg/dL
CRE [2]: 0.4 mg/dL
Ca [2]: 10.8 mg/dL
Cl [2]: 102.2 meq/L
DBIL [2]: 0.072 mg/dL
GLC [2]: 190 mg/dL
IP [2]: 9.5 mg/dL
K [2]: 4 meq/L
LDH [2]: 191.4 IU/L
Na [2]: 140.8 meq/L
PL [2]: 164.4 mg/dL
RALB [2]: 3.4 g/dL
TBIL [2]: 0.1 mg/dL
TC [2]: 88.6 mg/dL
TG [2]: 79.8 mg/dL
TP [2]: 5.7 g/dL
gamma-GTP [2]: 1 IU/L
TERMINAL_BW [3]: 206.7 g
APTT [3]: 19.2 s
Bas [3]: 0%
Eos [3]: 1%
Fbg [3]: 233.2 mg/dL
Hb [3]: 13 g/dL
Ht [3]: 38.1%
Lym [3]: 72.8%
MCH [3]: 21.6 pg
MCHC [3]: 34.1%
MCV [3]: 63.2 fL
Mono [3]: 2.6%
Neu [3]: 22.6%
PT [3]: 12.7 s
Plat [3]: 118.9 x10_4/uL
RBC [3]: 603 x10_4/ul
Ret [3]: 7.5%
WBC [3]: 81.5 x10_2/uL
KIDNEY_L [3]: 0.9 g
KIDNEY_R [3]: 0.9 g
KIDNEY_TOTAL [3]: 1.8 g
LIVER [3]: 8.6 g
A/G [3]: 1.5
ALP [3]: 961.6 IU/L
ALT [3]: 32.4 IU/L
AST [3]: 65.2 IU/L
BUN [3]: 8.8 mg/dL
CRE [3]: 0.3 mg/dL
Ca [3]: 10.5 mg/dL
Cl [3]: 103.2 meq/L
DBIL [3]: 0.064 mg/dL
GLC [3]: 198.6 mg/dL
IP [3]: 9.3 mg/dL
K [3]: 3.5 meq/L
LDH [3]: 183 IU/L
Na [3]: 140.8 meq/L
PL [3]: 149.2 mg/dL
RALB [3]: 3.3 g/dL
TBIL [3]: 0.1 mg/dL
TC [3]: 83.2 mg/dL
TG [3]: 44.2 mg/dL
TP [3]: 5.5 g/dL
gamma-GTP [3]: 1.2 IU/L
TERMINAL_BW [4]: 224.2 g
APTT [4]: 17.4 s
Bas [4]: 0%
Eos [4]: 0.8%
Fbg [4]: 233 mg/dL
Hb [4]: 12.8 g/dL
Ht [4]: 37.6%
Lym [4]: 75%
MCH [4]: 21.2 pg
MCHC [4]: 34.2%
MCV [4]: 62.1 fL
Mono [4]: 2.6%
Neu [4]: 19.8%
PT [4]: 12.4 s
Plat [4]: 122 x10_4/uL
RBC [4]: 605.8 x10_4/ul
Ret [4]: 6.5%
WBC [4]: 104.1 x10_2/uL
KIDNEY_L [4]: 1 g
KIDNEY_R [4]: 1 g
KIDNEY_TOTAL [4]: 1.9 g
LIVER [4]: 10.6 g
A/G [4]: 1.4
ALP [4]: 992.4 IU/L
ALT [4]: 40 IU/L
AST [4]: 62.8 IU/L
BUN [4]: 13.8 mg/dL
CRE [4]: 0.4 mg/dL
Ca [4]: 10.9 mg/dL
Cl [4]: 101.8 meq/L
DBIL [4]: 0.088 mg/dL
GLC [4]: 187.2 mg/dL
IP [4]: 7.2 mg/dL
K [4]: 3.9 meq/L
LDH [4]: 224 IU/L
Na [4]: 140.6 meq/L
PL [4]: 163.6 mg/dL
RALB [4]: 3.3 g/dL
TBIL [4]: 0.1 mg/dL
TC [4]: 86.8 mg/dL
TG [4]: 85.6 mg/dL
TP [4]: 5.6 g/dL
gamma-GTP [4]: 1.2 IU/L
TERMINAL_BW [5]: 210.6 g
APTT [5]: 19.5 s
Bas [5]: 0%
Eos [5]: 1%
Fbg [5]: 221.8 mg/dL
Hb [5]: 13.4 g/dL
Ht [5]: 39.6%
Lym [5]: 72.2%
MCH [5]: 21.2 pg
MCHC [5]: 33.9%
MCV [5]: 62.4 fL
Mono [5]: 2.8%
Neu [5]: 23.2%
PT [5]: 12.7 s
Plat [5]: 116.4 x10_4/uL
RBC [5]: 633.8 x10_4/ul
Ret [5]: 7%
WBC [5]: 94.9 x10_2/uL
KIDNEY_L [5]: 1 g
KIDNEY_R [5]: 1 g
KIDNEY_TOTAL [5]: 1.9 g
LIVER [5]: 9.7 g
A/G [5]: 1.5
ALP [5]: 1059.6 IU/L
ALT [5]: 39.4 IU/L
AST [5]: 67.8 IU/L
BUN [5]: 11.4 mg/dL
CRE [5]: 0.4 mg/dL
Ca [5]: 10.7 mg/dL
Cl [5]: 102.4 meq/L
DBIL [5]: 0.064 mg/dL
GLC [5]: 196.6 mg/dL
IP [5]: 9.4 mg/dL
K [5]: 4 meq/L
LDH [5]: 203.6 IU/L
Na [5]: 139.6 meq/L
PL [5]: 139.4 mg/dL
RALB [5]: 3.4 g/dL
TBIL [5]: 0.1 mg/dL
TC [5]: 76 mg/dL
TG [5]: 46.2 mg/dL
TP [5]: 5.6 g/dL
gamma-GTP [5]: 1 IU/L
TERMINAL_BW [6]: 208.9 g
APTT [6]: 18.8 s
Bas [6]: 0%
Eos [6]: 0.8%
Fbg [6]: 226 mg/dL
Hb [6]: 13.1 g/dL
Ht [6]: 38.3%
Lym [6]: 76.4%
MCH [6]: 21.3 pg
MCHC [6]: 34.2%
MCV [6]: 62.2 fL
Mono [6]: 2.2%
Neu [6]: 19.2%
PT [6]: 12.7 s
Plat [6]: 120.4 x10_4/uL
RBC [6]: 616.4 x10_4/ul
Ret [6]: 7.3%
WBC [6]: 73.5 x10_2/uL
KIDNEY_L [6]: 0.9 g
KIDNEY_R [6]: 1 g
KIDNEY_TOTAL [6]: 1.9 g
LIVER [6]: 9 g
A/G [6]: 1.5
ALP [6]: 928.2 IU/L
ALT [6]: 31.4 IU/L
AST [6]: 66.4 IU/L
BUN [6]: 8.4 mg/dL
CRE [6]: 0.4 mg/dL
Ca [6]: 10.5 mg/dL
Cl [6]: 103.2 meq/L
DBIL [6]: 0.066 mg/dL
GLC [6]: 190.8 mg/dL
IP [6]: 9.4 mg/dL
K [6]: 4 meq/L
LDH [6]: 207.8 IU/L
Na [6]: 141.4 meq/L
PL [6]: 144 mg/dL
RALB [6]: 3.4 g/dL
TBIL [6]: 0.1 mg/dL
TC [6]: 75.4 mg/dL
TG [6]: 59 mg/dL
TP [6]: 5.6 g/dL
gamma-GTP [6]: 1 IU/L
TERMINAL_BW [7]: 206.9 g
APTT [7]: 18.8 s
Bas [7]: 0%
Eos [7]: 0.8%
Fbg [7]: 222.2 mg/dL
Hb [7]: 13.2 g/dL
Ht [7]: 38.4%
Lym [7]: 72.2%
MCH [7]: 21.9 pg
MCHC [7]: 34.4%
MCV [7]: 63.7 fL
Mono [7]: 1.2%
Neu [7]: 25.2%
PT [7]: 12.8 s
Plat [7]: 110.1 x10_4/uL
RBC [7]: 603.4 x10_4/ul
Ret [7]: 7.2%
WBC [7]: 68.2 x10_2/uL
KIDNEY_L [7]: 0.9 g
KIDNEY_R [7]: 1 g
KIDNEY_TOTAL [7]: 1.9 g
LIVER [7]: 8 g
A/G [7]: 1.5
ALP [7]: 772.2 IU/L
ALT [7]: 31.4 IU/L
AST [7]: 67.4 IU/L
BUN [7]: 8.6 mg/dL
CRE [7]: 0.4 mg/dL
Ca [7]: 10.4 mg/dL
Cl [7]: 103.2 meq/L
DBIL [7]: 0.06 mg/dL
GLC [7]: 210.6 mg/dL
IP [7]: 8.6 mg/dL
K [7]: 3.5 meq/L
LDH [7]: 195.4 IU/L
Na [7]: 141.4 meq/L
PL [7]: 137.2 mg/dL
RALB [7]: 3.5 g/dL
TBIL [7]: 0.1 mg/dL
TC [7]: 72.6 mg/dL
TG [7]: 23 mg/dL
TP [7]: 5.8 g/dL
gamma-GTP [7]: 1.4 IU/L
TERMINAL_BW [8]: 214 g
APTT [8]: 17.5 s
Bas [8]: 0%
Eos [8]: 0.8%
Fbg [8]: 216.2 mg/dL
Hb [8]: 13.5 g/dL
Ht [8]: 39.4%
Lym [8]: 82.6%
MCH [8]: 21.7 pg
MCHC [8]: 34.4%
MCV [8]: 63 fL
Mono [8]: 2.4%
Neu [8]: 13%
PT [8]: 13.2 s
Plat [8]: 135.4 x10_4/uL
RBC [8]: 624 x10_4/ul
Ret [8]: 6.2%
WBC [8]: 85.9 x10_2/uL
KIDNEY_L [8]: 1 g
KIDNEY_R [8]: 1 g
KIDNEY_TOTAL [8]: 1.9 g
LIVER [8]: 8.6 g
A/G [8]: 1.5
ALP [8]: 925.2 IU/L
ALT [8]: 40.6 IU/L
AST [8]: 69.8 IU/L
BUN [8]: 13.8 mg/dL
CRE [8]: 0.4 mg/dL
Ca [8]: 10.7 mg/dL
Cl [8]: 100.6 meq/L
DBIL [8]: 0.076 mg/dL
GLC [8]: 191 mg/dL
IP [8]: 8.8 mg/dL
K [8]: 3.8 meq/L
LDH [8]: 232 IU/L
Na [8]: 139.6 meq/L
PL [8]: 142.4 mg/dL
RALB [8]: 3.4 g/dL
TBIL [8]: 0.1 mg/dL
TC [8]: 79.8 mg/dL
TG [8]: 52.8 mg/dL
TP [8]: 5.7 g/dL
gamma-GTP [8]: 1 IU/L
